Patent US20210069152A1, “METHODS FOR TREATING HETEROTOPIC OSSIFICATION” (Clementia Pharmaceuticals Inc., priority 2016, published 2021)

Assays:
Prrx1-R206H mice = test: Growth plate assessment in Prrx1-R206H mice; assay type: in vivo
Experimental: (§1) The effects of palovarotene on the growth plates were assessed.

[1] = system: heterotopic ossification in subjects with fibrodysplasia ossificans progressiva; test: Volume of new heterotopic ossification at flare-up site (x-ray / low-dose CT) in FOP patients, adult cohort dosing regimens; assay type: in vivo, human; settings: for reduction in mean bone volume formation (new HO) relative to Placebo/Untreated group: 12 weeks
Experimental: FIGS. 3A and 3B are graphs showing a comparison of the volume of new heterotopic ossification between (i) episodic treatment of FOP patients (i.e., treatment during non-quiescent periods only and (ii) the treatment regimens of the present invention that include treatment during both quiescent and non-quiescent periods. Patients in the “Placebo/Untreated” group were treated with a sugar pill or untreated (28 patients). Patients in the “PVO Non-Quiescent Only” group were treated with either 20 mg palovarotene (PVO) daily for 28 days followed by 10 mg PVO daily for 56 days (47 patients) or 10 mg PVO daily for 14 days followed by 5 mg PVO daily for 28 days (9 patients). Patients in the “PVO Quiescent/Non-Quiescent” group were treated with 5 mg PVO daily during the quiescent period and with 20 mg PVO daily for 28 days (NQ loading dose) followed by 10 mg PVO daily for 56 days (NQ maintenance dose) following initiation of flare-up symptoms, i.e., initiation of a non-quiescent period (10 patients).
Adult cohort includes individuals who have achieved at least 90% skeletal maturity irrespective of age. Individuals in the adult cohort received palovarotene (neutral form) at 5 mg once daily as a non-flare-up based treatment (e.g., during periods when symptoms of a flare-up were not present). […]
Assessment of new HO at the flare-up site was evaluated using x-ray, and low-dose CT imaging was employed as a secondary imaging assessment. […] In order to ensure consistency and standardization, images were evaluated for the presence or absence of HO using two independent procedures, both of which were blinded to treatment group assignment. In the Primary Read process, two musculoskeletal radiologists independently compared baseline and post-baseline images within a single imaging modality.
The volume of new heterotopic ossification (HO), HO that occurred during the non-quiescent period, was assessed 12 weeks following initiation of treatment for the “Non-Quiescent Only” treatment group and 12 weeks after initiation of the 20 mg/day NQ loading dose in the “Quiescent/Non-Quiescent” treatment group.

[2] = system: heterotopic ossification in subjects with fibrodysplasia ossificans progressiva; test: Flare-up outcomes, open-label study (new HO by low-dose CT scan); assay type: in vivo, human; settings: open-label extension study, 27 flare-ups treated with open-label palovarotene
Experimental: (§2) Sixty-seven flare-ups have been treated: 40 with double-blind medication (10 subjects received placebo, 9 subjects received palovarotene at 5 mg once daily for 2 weeks followed by 2.5 mg once daily for 4 weeks, and 21 subjects received palovarotene at 10 mg once daily for 2 weeks followed by 5 mg once daily for 4 weeks); and 27 received open-label palovarotene. Sixty-one of these 67 flare-ups have available results from post-baseline imaging (by low-dose CT scan). The results are summarized for the respective studies in FIGS. 1 and 2.

[3] = system: subjects with fibrodysplasia ossificans progressiva; test: Safety outcomes, open-label study; assay type: in vivo, human
Experimental: as §2
The findings were similar in the open-label study (described in Example 1) in which the overall incidence of adverse events was 92.3% (12 of 13 subjects). Retinoid-associated adverse events were reported by all subjects; most were mild (69.2%) in severity. The most frequently reported adverse events overall were dry skin (69.2%) and pruritus (61.5%).

wild-type mice = test: Growth plate assessment in wild-type mice; assay type: in vivo
Experimental: as §1

growth plate = test: Growth plate assessment by knee and hand/wrist radiographs in children; assay type: in vivo, human; settings: acute 6-week treatment
[4] = system: subjects with fibrodysplasia ossificans progressiva; test: Safety outcomes, double-blind study; assay type: in vivo, human
Experimental: as §2
The most frequently reported adverse events overall were dry skin (58.8%) and dry lips (32.4%).

CC1(C)CCC(C)(C)c2cc(Cn3cccn3)c(/C=C/c3ccc(C(=O)O)cc3)cc21 [palovarotene, 4-[(1E)-2-[5,6,7,8-Tetrahydro-5,5,8,8-tetramethyl-3-(1H-pyrazol-1-ylmethyl)-2-naphthalenyl]-ethenyl]-benzoic acid]
effect on long bone growth, growth plate organization and matrix deposition (Prrx1-R206H mice): preserved long bone growth and near-normalized growth plate organization and matrix deposition
effect on histologic growth plate abnormalities and long bone length (Prrx1-R206H mice; daily dosing): reversed histologic growth plate abnormalities and shortened long bones
reduction in mean bone volume formation (new HO) relative to Placebo/Untreated group ([1]; Non-Quiescent Only group (both doses pooled)): 75%
volume of new heterotopic ossification ([1]; PVO Quiescent/Non-Quiescent: 5 mg daily quiescent, 20 mg daily 28 days then 10 mg daily 56 days after flare-up (10 patients), 12 weeks after start of NQ loading dose): 212 mm^3
reduction in mean bone volume formation (new HO) relative to Placebo/Untreated group ([1]; Quiescent/Non-Quiescent group): 97%
number of flare-ups with new HO [2]: four
dose reductions or discontinuations of treatment [3]: no dose reductions or discontinuations of treatment
retinoid-associated adverse events mild in severity [3]: 69.2%
subjects reporting retinoid-associated adverse events [3]: all subjects
overall incidence of adverse events ([3]; 12 of 13 subjects): 92.3%
incidence of dry skin ([3]; overall): 69.2%
incidence of pruritus ([3]; overall): 61.5%
effect on growth plate (wild-type mice): Adverse effects
adverse effects on the growth plate (growth plate): no adverse effects on the growth plate
dose reductions or discontinuations of treatment [4]: no dose reductions or discontinuations of treatment
incidence and severity of retinoid-associated adverse events, trend [4]: dose-related increases in the incidence and severity
severity of most retinoid-associated adverse events [4]: mild or moderate
trend of adverse event incidence across the treatment groups [4]: dose-related increases across the treatment groups
overall incidence of adverse events ([4]; 33 of 34 subjects with safety data, all treatment groups (placebo, 5/2.5 mg, 10/5 mg)): 97.1%
incidence of dry lips ([4]; overall): 32.4%
incidence of dry skin ([4]; overall): 58.8%
